Results as given in PubChem BioAssay AID1919016 (Molecular Pharmacology Branch, DTP, NCI, 2023).

Tested on: NCI-H196 complex spheroid growth, percent test/control
Test: Anticancer human tumor NCI-H196 cell line growth inhibition [AhR];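 also: seven days of drug exposure starting three days after plating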;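 as to viability, T/C: 100% = DMSO vehicle control wells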
Conditions: for IC50: curve of first compound; for viability, T/C: stronger effect = lower value
In short: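 Complex tumor spheroids co-cultured with HUVEC and human MSC stroma; AhR antagonists tested in combination with standard-of-care and investigational agents. Top concentration at or near clinical Cmax (else 10 microM), half-log dilutions; growth expressed as percent test/control.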

[1] = second compound 0.1 µM, first compound 0.0316 µM
[2] = second compound 0.1 µM, first compound 0.1 µM
[3] = second compound 0.1 µM, first compound 0.316 µM
[4] = second compound 0.1 µM, first compound 1 µM
[5] = second compound 0.1 µM, first compound 3.16 µM
[6] = second compound 0.1 µM, first compound 10 µM
[7] = second compound 0.316 µM, first compound 0.0316 µM
[8] = second compound 0.316 µM, first compound 0.1 µM
[9] = second compound 0.316 µM, first compound 0.316 µM
[10] = second compound 0.316 µM, first compound 1 µM
[11] = second compound 0.316 µM, first compound 3.16 µM
[12] = second compound 0.316 µM, first compound 10 µM
[13] = second compound 1 µM, first compound 0.0316 µM
[14] = second compound 1 µM, first compound 0.1 µM
[15] = second compound 1 µM, first compound 0.316 µM
[16] = second compound 1 µM, first compound 1 µM
[17] = second compound 1 µM, first compound 3.16 µM
[18] = second compound 1 µM, first compound 10 µM
[19] = second compound 3.16 µM, first compound 0.0316 µM
[20] = second compound 3.16 µM, first compound 0.1 µM
[21] = second compound 3.16 µM, first compound 0.316 µM
[22] = second compound 3.16 µM, first compound 1 µM
[23] = second compound 3.16 µM, first compound 3.16 µM
[24] = second compound 3.16 µM, first compound 10 µM
[25] = second compound 10 µM, first compound 0.0316 µM
[26] = second compound 10 µM, first compound 0.1 µM
[27] = second compound 10 µM, first compound 0.316 µM
[28] = second compound 10 µM, first compound 1 µM
[29] = second compound 10 µM, first compound 3.16 µM
[30] = second compound 10 µM, first compound 10 µM

SMILES	IC50 (second compound 0.1 µM) [µM]	IC50 (second compound 0.316 µM) [µM]	IC50 (second compound 1 µM) [µM]	IC50 (second compound 3.16 µM) [µM]	IC50 (second compound 10 µM) [µM]	viability, T/C [1] [%]	viability, T/C [2] [%]	viability, T/C [3] [%]	viability, T/C [4] [%]	viability, T/C [5] [%]	viability, T/C [6] [%]	viability, T/C [7] [%]	viability, T/C [8] [%]	viability, T/C [9] [%]	viability, T/C [10] [%]	viability, T/C [11] [%]	viability, T/C [12] [%]	viability, T/C [13] [%]	viability, T/C [14] [%]	viability, T/C [15] [%]	other results
COc1cc(Nc2ncc3c(n2)-c2ccc(Cl)cc2C(c2c(F)cccc2OC)=NC3)ccc1C(=O)O + Cc1ccccc1N=Nc1ccc(NC(=O)c2ccnn2C)c(C)c1	> 10	> 10	> 10	> 10	> 10	83.2	94.4	108	107	123	116	83.3	89.3	106	118	119	115	85.5	88.9	95.9	viability, T/C [16]: 94.2%; viability, T/C [17]: 111%; viability, T/C [18]: 104%; viability, T/C [19]: 85.4%; viability, T/C [20]: 86%; viability, T/C [21]: 102%; viability, T/C [22]: 97.5%; viability, T/C [23]: 109%; viability, T/C [24]: 117%; viability, T/C [25]: 89.8%; viability, T/C [26]: 88.4%; viability, T/C [27]: 96.3%; viability, T/C [28]: 91.1%; viability, T/C [29]: 108%; viability, T/C [30]: 104%
O=C(C=Cc1cccc(S(=O)(=O)Nc2ccccc2)c1)NO + Cc1ccccc1N=Nc1ccc(NC(=O)c2ccnn2C)c(C)c1	1.48	1.76	1.72	1.87	2.03	93	100	87.8	62	25.5	0.66	92.7	96.5	104	69.9	27.4	0.67	102	94.5	90.4	viability, T/C [16]: 74.2%; viability, T/C [17]: 23.7%; viability, T/C [18]: 3.01%; viability, T/C [19]: 93.6%; viability, T/C [20]: 91.9%; viability, T/C [21]: 91.1%; viability, T/C [22]: 72%; viability, T/C [23]: 31.3%; viability, T/C [24]: 1.68%; viability, T/C [25]: 87.9%; viability, T/C [26]: 90.8%; viability, T/C [27]: 81.6%; viability, T/C [28]: 72.4%; viability, T/C [29]: 36.4%; viability, T/C [30]: 0.98%
